Reference: patent publication US20250171495A1, “MUTLI-TARGETED SERINE PROTEASE INHIBITORS FOR TREATMENT OF CANCER AND VIRAL INFECTION” (Washington University, priority 2023, published 2025)
Where “and” joins values, the source holds several entries; their conditions need not be identical. Equal entries are not always repeated.

Key:
Type in all cases: biochemical
[1] = target: TMPRSS2 (Homo sapiens, UniProt O15393); test: PS-SCL / HyCoSuL substrate specificity screening, TMPRSS2; conditions: for P2 Position Substrate Activity for TMPRSS2 (percent substrate cleavage/proteolysis): residue fixed at P2 position of substrate library; for P4 Position Various Amino Acids Substrate Activity, TMPRSS2 (percent substrate proteolysis/cleavage) / P4 Position Substrate Activity for TMPRSS2 (percent substrate cleavage/proteolysis): residue fixed at P4 position of substrate library
Chain of TMPRSS2 (O15393 whole entry): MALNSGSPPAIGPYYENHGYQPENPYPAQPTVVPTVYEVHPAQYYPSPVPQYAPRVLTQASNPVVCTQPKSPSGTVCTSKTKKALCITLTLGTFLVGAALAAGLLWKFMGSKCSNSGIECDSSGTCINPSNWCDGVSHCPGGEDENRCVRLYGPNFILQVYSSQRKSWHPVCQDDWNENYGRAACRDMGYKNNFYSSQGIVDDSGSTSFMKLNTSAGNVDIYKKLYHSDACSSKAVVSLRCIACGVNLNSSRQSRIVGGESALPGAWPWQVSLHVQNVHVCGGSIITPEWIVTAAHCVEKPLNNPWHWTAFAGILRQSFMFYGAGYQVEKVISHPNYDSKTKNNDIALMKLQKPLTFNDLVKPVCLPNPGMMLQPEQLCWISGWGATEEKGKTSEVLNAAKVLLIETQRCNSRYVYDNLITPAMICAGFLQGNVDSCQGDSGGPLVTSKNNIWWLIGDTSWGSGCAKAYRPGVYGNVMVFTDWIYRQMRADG

[2] = target: T1, matriptase (Homo sapiens, UniProt Q9Y5Y6); test: HyCoSuL P4-P2 substrate specificity screening, matriptase; conditions: for P2 Position Substrate Activity for matriptase (percent substrate cleavage/proteolysis): residue fixed at P2 position; for P3 Position Various Amino Acids Substrate Activity, matriptase (percent substrate cleavage/proteolysis): residue fixed at P3 position of substrate library; for P4 Position Various Amino Acids Substrate Activity, matriptase (percent substrate proteolysis/cleavage): residue fixed at P4 position of substrate library; for P4 Position Substrate Activity for matriptase (percent substrate cleavage/proteolysis): residue fixed at P4 position
T1 sequence (Q9Y5Y6 1-855): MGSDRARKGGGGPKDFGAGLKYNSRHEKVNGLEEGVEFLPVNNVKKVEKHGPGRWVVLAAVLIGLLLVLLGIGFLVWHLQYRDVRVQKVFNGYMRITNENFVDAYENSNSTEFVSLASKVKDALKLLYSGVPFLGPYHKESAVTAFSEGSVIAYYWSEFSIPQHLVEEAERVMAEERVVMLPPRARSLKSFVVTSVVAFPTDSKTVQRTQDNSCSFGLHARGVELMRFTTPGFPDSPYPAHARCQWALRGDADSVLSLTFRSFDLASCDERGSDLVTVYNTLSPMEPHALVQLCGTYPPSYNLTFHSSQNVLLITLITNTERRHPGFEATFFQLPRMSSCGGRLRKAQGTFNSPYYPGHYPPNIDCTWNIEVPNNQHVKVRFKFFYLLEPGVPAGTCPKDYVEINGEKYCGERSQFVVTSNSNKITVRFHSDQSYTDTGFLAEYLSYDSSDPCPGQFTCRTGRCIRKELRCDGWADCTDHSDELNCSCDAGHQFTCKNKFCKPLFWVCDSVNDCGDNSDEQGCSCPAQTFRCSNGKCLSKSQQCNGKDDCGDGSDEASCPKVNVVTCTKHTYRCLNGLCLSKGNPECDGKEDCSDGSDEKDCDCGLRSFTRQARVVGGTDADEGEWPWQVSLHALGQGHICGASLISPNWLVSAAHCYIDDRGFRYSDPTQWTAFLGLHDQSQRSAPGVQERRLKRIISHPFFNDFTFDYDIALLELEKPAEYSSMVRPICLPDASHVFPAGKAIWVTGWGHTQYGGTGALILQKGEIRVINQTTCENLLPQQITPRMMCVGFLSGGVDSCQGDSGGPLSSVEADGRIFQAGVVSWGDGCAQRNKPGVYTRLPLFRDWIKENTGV

[3] = target: T2, hepsin (Homo sapiens, UniProt P05981); test: HyCoSuL P4-P2 substrate specificity screening, hepsin; conditions: for P2 Position Substrate Activity for hepsin (percent substrate cleavage/proteolysis): residue fixed at P2 position; for P3 Position Various Amino Acids Substrate Activity, hepsin (percent substrate cleavage/proteolysis): residue fixed at P3 position of substrate library; for P4 Position Various Amino Acids Substrate Activity, hepsin (percent substrate proteolysis/cleavage): residue fixed at P4 position of substrate library; for P4 Position Substrate Activity for hepsin (percent substrate cleavage/proteolysis): residue fixed at P4 position
T2 construct: purchased R&D Systems 4776-SE-010
T2 sequence (P05981 163-417 limits assumed): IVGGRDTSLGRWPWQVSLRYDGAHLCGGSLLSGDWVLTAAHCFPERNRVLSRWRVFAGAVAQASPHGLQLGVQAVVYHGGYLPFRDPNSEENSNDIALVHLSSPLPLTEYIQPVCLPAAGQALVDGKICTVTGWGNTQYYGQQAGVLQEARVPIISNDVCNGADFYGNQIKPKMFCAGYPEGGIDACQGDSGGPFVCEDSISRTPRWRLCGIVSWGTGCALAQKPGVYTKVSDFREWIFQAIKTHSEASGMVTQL
T2 sequence (P05981 1-162 partner limits assumed): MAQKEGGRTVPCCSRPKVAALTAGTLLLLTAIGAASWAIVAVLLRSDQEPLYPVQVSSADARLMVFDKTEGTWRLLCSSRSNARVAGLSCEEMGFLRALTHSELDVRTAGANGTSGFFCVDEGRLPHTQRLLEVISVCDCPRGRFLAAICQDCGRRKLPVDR

[4] = target: T3, HGFA (Homo sapiens, UniProt Q04756); test: HyCoSuL P4-P2 substrate specificity screening, HGFA; conditions: for P2 Position Substrate Activity for HGFA (percent substrate cleavage/proteolysis): residue fixed at P2 position; for P3 Position Various Amino Acids Substrate Activity, HGFA (percent substrate cleavage/proteolysis): residue fixed at P3 position of substrate library; for P4 Position Various Amino Acids Substrate Activity, HGFA (percent substrate proteolysis/cleavage): residue fixed at P4 position of substrate library; for P4 Position Substrate Activity for HGFA (percent substrate cleavage/proteolysis): residue fixed at P4 position
T3 sequence (Q04756 373-655): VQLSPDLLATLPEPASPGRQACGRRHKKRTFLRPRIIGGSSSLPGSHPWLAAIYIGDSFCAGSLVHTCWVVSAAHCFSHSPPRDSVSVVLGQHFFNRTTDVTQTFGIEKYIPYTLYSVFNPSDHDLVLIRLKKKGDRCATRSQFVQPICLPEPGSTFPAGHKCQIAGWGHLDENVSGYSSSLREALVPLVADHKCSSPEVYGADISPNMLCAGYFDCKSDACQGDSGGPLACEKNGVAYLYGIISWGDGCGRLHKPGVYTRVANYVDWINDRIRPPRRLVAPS

[5] = best recognized amino acid set to 100%
[6] = residue fixed at P3 position of substrate library
[7] = P1-Arg HyCoSuL, 100 μM, best recognized amino acid set to 100%
[8] = residue fixed at P3 position, P1-Arg HyCoSuL, 100 μM, best recognized amino acid set to 100%

Substance	P2 Position Substrate Activity for TMPRSS2 (percent substrate cleavage/proteolysis) [1, 5]	P3 Position Various Amino Acids Substrate Activity, TMPRSS2 (percent substrate cleavage/proteolysis) [1, 6]	P4 Position Various Amino Acids Substrate Activity, TMPRSS2 (percent substrate proteolysis/cleavage) [1]	P2 Position Substrate Activity for matriptase (percent substrate cleavage/proteolysis) [2, 7]	P3 Position Various Amino Acids Substrate Activity, matriptase (percent substrate cleavage/proteolysis) [2]	P4 Position Various Amino Acids Substrate Activity, matriptase (percent substrate proteolysis/cleavage) [2]	P2 Position Substrate Activity for hepsin (percent substrate cleavage/proteolysis) [3, 7]	P3 Position Various Amino Acids Substrate Activity, hepsin (percent substrate cleavage/proteolysis) [3]	P4 Position Various Amino Acids Substrate Activity, hepsin (percent substrate proteolysis/cleavage) [3]	P2 Position Substrate Activity for HGFA (percent substrate cleavage/proteolysis) [4, 7]	P3 Position Various Amino Acids Substrate Activity, HGFA (percent substrate cleavage/proteolysis) [4]	P4 Position Various Amino Acids Substrate Activity, HGFA (percent substrate proteolysis/cleavage) [4]	P4 Position Substrate Activity for TMPRSS2 (percent substrate cleavage/proteolysis) [1, 5]	P4 Position Substrate Activity for matriptase (percent substrate cleavage/proteolysis) [2, 7]	P4 Position Substrate Activity for hepsin (percent substrate cleavage/proteolysis) [3, 7]	P4 Position Substrate Activity for HGFA (percent substrate cleavage/proteolysis) [4, 7]	P3 Position Substrate Activity for TMPRSS2 (percent substrate cleavage/proteolysis) ([1]; residue fixed at P3 position of substrate library, best recognized amino acid set to 100%)	P3 Position Substrate Activity for matriptase (percent substrate cleavage/proteolysis) [2, 8]	P3 Position Substrate Activity for hepsin (percent substrate cleavage/proteolysis) [3, 8]	P3 Position Substrate Activity for HGFA (percent substrate cleavage/proteolysis) [4, 8]
L-His	15.38%	26.27%	24.98%	30%	17%	10%	31.24%	43.05%	25.35%	4.00%	11.93%	8.90%	–	–	–	–	–	–	–	–
L-Hyp	10.38%	2.19%	–	2%	0%	50%	38.67%	4.70%	–	3.95%	2.18%	–	33.28%	50.16%	37.81%	10.66%	–	–	–	–
L-Ile	7.29%	13.26%	63.74%	3%	13%	32%	45.68%	11.37%	47.02%	4.94%	9.06%	14.09%	–	–	–	–	–	–	–	–
L-Leu	5.90%	18.81%	30.24%	12%	22%	17%	100.00%	19.51%	33.10%	100.00%	13.71%	10.18%	–	–	–	–	–	–	–	–
L-Lys	3.79%	–	–	6%	81%	75%	46.70%	–	–	1.04%	–	–	14.11%	75.49%	75.43%	18.29%	27.86%	76.43% and 80.67%	80.71%	44.63%
